According to PMC9853328, “Potent Platinum(IV) Prodrugs That Incorporate a Biotin Moiety to Selectively Target Cancer Cells” (Pharmaceutics, 2022):

What was measured:
Type in all cases: cell-based
[1] = system: HT29 colon cancer cells; test: MTT in vitro cytotoxicity assay, HT29; settings: MTT, 72 h drug exposure, n = 3; read-out: GI50 ± SEM, HT29
Experimental: (§1) The in vitro cytotoxicity assays were undertaken at Calvary Mater Hospital, Waratah, NSW, Australia, following a method previously published in the literature. A stock solution for each compound was prepared in DMSO (30 mM) and stored at −20 °C. The cell lines used in the study include HT29 colon, U87 glioblastoma, MCF-7 breast, A2780 ovarian, H460 lung, A431 skin, Du145 prostate, BE2-C neuroblastoma, SJ-G2 glioblastoma, MIA pancreas, and cisplatin-resistant ADDP ovarian (subclone of A2780) cancer cells, as well as the non-cancerous-derived MCF10A breast cell line. The cancer cell lines were cultured in a humidified atmosphere 5% CO2 at 37 °C and maintained in Dulbecco’s modified Eagle’s medium (Trace Biosciences, Sydney, Australia), supplemented with 10% foetal bovine serum, sodium bicarbonate (10 mM), penicillin (100 IU/mL), streptomycin (100 µg/mL), and glutamine (4 mM). The non-cancerous MCF10A cell line was maintained in DMEM:F12 (1:1) cell culture media, with 5% heat inactivated horse serum, supplemented with penicillin (50 IU/mL), streptomycin (50 µg/mL), glutamine (2 mM), HEPES (20 mM), epidermal growth factor (20 ng/mL), hydrocortisone (500 ng/mL), cholera toxin (100 ng/mL), and insulin (10 µg/mL). Cells were plated in duplicate in medium (100 µL) at a density of 2500–4000 cells per well in 96-well plates. On day 0, (24 h after plating) when the cells were in logarithmic growth, medium (100 μL) with or without the test agent was added to each well. The growth inhibitory effects were evaluated after 72 h drug exposure, using the MTT (3-(4,5-dimethylthiazol-2-yl)-2,5-diphenyltetrazolium bromide) assay, with the absorbance read at 540 nm. An eight-point dose–response curve was produced, which was used to determine the concentration at which growth was inhibited by 50% (GI50). This calculation was based on the difference between the optical density values on day 0 and those at the end of drug exposure. […] Experiments were conducted on three separate occasions and GI50 values were reported as the mean and standard error of the mean.

[2] = system: U87 glioblastoma cells; test: MTT in vitro cytotoxicity assay, U87; settings: 72 h drug exposure, n = 3, read-out: GI50 ± SEM, U87
Experimental: as §1

[3] = system: MCF-7 breast cancer cells; test: MTT in vitro cytotoxicity assay, MCF-7; settings: for GI50: MTT, 72 h drug exposure, n = 3, read-out: GI50 ± SEM, MCF-7; for selectivity towards MCF-7 compared to MCF10A (cytotoxicity): GI50 MCF10A versus GI50 MCF-7
[4] = system: A2780 ovarian cancer cells; test: MTT in vitro cytotoxicity assay, A2780; settings: 72 h drug exposure, n = 3, read-out: GI50 ± SEM, A2780
Experimental: as §1

[5] = system: H460 lung cancer cells; test: MTT in vitro cytotoxicity assay, H460; settings: 72 h drug exposure, n = 3, read-out: GI50 ± SEM, H460
Experimental: as §1

[6] = system: A431 skin cancer cells; test: MTT in vitro cytotoxicity assay, A431; settings: 72 h drug exposure, n = 3, read-out: GI50 ± SEM, A431
Experimental: as §1

[7] = system: Du145 prostate cancer cells; test: MTT in vitro cytotoxicity assay, Du145; settings: MTT, 72 h drug exposure, n = 3; read-out: GI50 ± SEM, Du145
Experimental: as §1

[8] = system: BE2-C neuroblastoma cells; test: MTT in vitro cytotoxicity assay, BE2-C; settings: 72 h drug exposure, n = 3, read-out: GI50 ± SEM, BE2-C
Experimental: as §1

[9] = system: SJ-G2 glioblastoma cells; test: MTT in vitro cytotoxicity assay, SJ-G2; settings: 72 h drug exposure, n = 3, read-out: GI50 ± SEM, SJ-G2
Experimental: as §1

[10] = system: MIA pancreas cancer cells; test: MTT in vitro cytotoxicity assay, MIA; settings: 72 h drug exposure, n = 3, read-out: GI50 ± SEM, MIA
Experimental: as §1

[11] = system: non-cancerous MCF10A breast cell line; test: MTT in vitro cytotoxicity assay, MCF10A; settings: 72 h drug exposure, n = 3, read-out: GI50 ± SEM, MCF10A
Experimental: as §1

[12] = system: cisplatin-resistant ADDP ovarian (subclone of A2780) cancer cells; test: MTT in vitro cytotoxicity assay, ADDP; settings: 72 h drug exposure, n = 3, read-out: GI50 ± SEM, ADDP
Experimental: as §1

[13] = system: ADDP (subclone of A2780) versus A2780 ovarian cancer cell lines; test: Resistance factor, GI50 in ADDP/GI50 in A2780

SMILES	GI50 [1] [nM]	GI50 [2] [nM]	GI50 [3] [nM]	GI50 [4] [nM]	GI50 [5] [nM]	GI50 [6] [nM]	GI50 [7] [nM]	GI50 [8] [nM]	GI50 [9] [nM]	GI50 [10] [nM]	GI50 [11] [nM]	GI50 [12] [nM]	Resistance factor (RF) [13]	selectivity towards MCF-7 compared to MCF10A (cytotoxicity) [3] [fold]
Cc1cc2ccc[n+]3c2c2c1ccc[n+]2[Pt-2]31[NH2+][C@H]2CCCC[C@@H]2[NH2+]1.[Cl-].[Cl-] [5MESS(II)]	33 ± 3.8	320 ± 26	200 ± 12	61 ± 10	41 ± 5	120 ± 25	22 ± 2.7	270 ± 38	220 ± 10	48 ± 2	30 ± 1.8	34 ± 2.3	0.557	–
Cc1cc2ccc[n+]3c2c2c1ccc[n+]2[Pt-2]31([OH])([OH])[NH2+][C@H]2CCCC[C@@H]2[NH2+]1.O=[N+]([O-])[O-].O=[N+]([O-])[O-] [5MESS(IV)]	150 ± 9	830 ± 170	560 ± 200	110 ± 26	180 ± 32	240 ± 7	36 ± 3.2	1100 ± 180	600 ± 74	290 ± 34	220 ± 26	180 ± 24	1.636	–
COc1cc[n+]2c3c1ccc1c(OC)cc[n+](c13)[Pt-2]21[NH2+][C@H]2CCCC[C@@H]2[NH2+]1.[Cl-].[Cl-] [47OMESS(II)]	120 ± 16	390 ± 60	150 ± 45	230 ± 7	500 ± 58	350 ± 26	85 ± 4.8	2600 ± 260	1300 ± 67	240 ± 42	430 ± 37	170 ± 10	0.739	3
COc1cc[n+]2c3c1ccc1c(OC)cc[n+](c13)[Pt-2]21([OH])([OH])[NH2+][C@H]2CCCC[C@@H]2[NH2+]1.O=[N+]([O-])[O-].O=[N+]([O-])[O-] [47OMESS(IV)]	520 ± 85	2600 ± 390	510 ± 168	1700 ± 230	3100 ± 210	3300 ± 590	270 ± 38	33000 ± 3200	7600 ± 1800	1900 ± 460	3700 ± 380	1300 ± 58	0.765	7
